Data published in ChEMBL document CHEMBL1201862, “PubChem BioAssay data set” (2004).
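Compound exposure: 48 hours, 5 concentrations, 96-well plates. Abbreviation: GI50, concentration required for 50% inhibition of growth.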 The source made the active and inactive calls. No stated cut-off is given here; in the data, active = GI50 up to about 1.1 µM and inactive = higher.

Assays:
Assay in all cases: NCI-60 cell line screen, 48 h
CAKI-1 = test system: CAKI-1
NCI-H23 = test system: NCI-H23
HCC 2998 = test system: HCC 2998
SN12C = test system: SN12C
SNB-19 = test system: SNB-19
IGROV-1 = test system: IGROV-1
COLO 205 = test system: COLO 205
A498 = test system: A498
MDA-MB-435 = test system: MDA-MB-435
EKVX = test system: EKVX
SF-539 = test system: SF-539
T47D = test system: T47D
UO-31 = test system: UO-31
OVCAR-8 = test system: OVCAR-8
RPMI-8226 = test system: RPMI-8226
MDA-MB-231 = test system: MDA-MB-231
UACC-62 = test system: UACC-62
DU-145 = test system: DU-145
ACHN = test system: ACHN
MOLT-4 = test system: MOLT-4

Structure (SMILES)	GI50 (CAKI-1)	GI50 (NCI-H23)	GI50 (HCC 2998)	GI50 (SN12C)	GI50 (SNB-19)	GI50 (IGROV-1)	GI50 (COLO 205)	GI50 (A498)	GI50 (MDA-MB-435)	GI50 (EKVX)	GI50 (SF-539)	GI50 (T47D)	GI50 (UO-31)	GI50 (OVCAR-8)	GI50 (RPMI-8226)	GI50 (MDA-MB-231)	GI50 (UACC-62)	GI50 (DU-145)	GI50 (ACHN)	GI50 (MOLT-4)
O=c1c2ccccc2oc2nc3n(c(=O)c12)CCCS3	> 100 µM (inactive)	> 100 µM (inactive)	> 100 µM (inactive)	> 100 µM (inactive)	> 100 µM (inactive)	> 100 µM (inactive)	> 100 µM (inactive)	> 100 µM (inactive)	> 100 µM (inactive)	> 100 µM (inactive)	> 100 µM (inactive)	> 100 µM (inactive)	15.7 µM (inactive)	> 100 µM (inactive)	> 100 µM (inactive)	> 100 µM (inactive)	> 100 µM (inactive)	> 100 µM (inactive)	> 100 µM (inactive)	> 100 µM (inactive)
COc1ccc2c(c1)c1nn(CCN(C)C)c3ccc4c(=O)n(CCN(C)C)c(=O)n2c4c13	0.0682 µM (active)	< 0.0241 µM (active)	< 0.01 µM (active)	< 0.0234 µM (active)	0.0224 µM (active)	< 0.01 µM (active)	< 0.0143 µM (active)	0.114 µM (active)	< 0.019 µM (active)	0.0746 µM (active)	0.169 µM (active)	0.144 µM (active)	0.0255 µM (active)	< 0.01 µM (active)	< 0.01 µM (active)	0.0211 µM (active)	0.116 µM (active)	0.0135 µM (active)	< 0.01 µM (active)	< 0.01 µM (active)
CCN(CC)CCCNc1ccc2ncn3c4ccc(O)cc4c(=O)c1c23	0.365 µM (active)	2.19 µM (inactive)	2.15 µM (inactive)	0.637 µM (active)	2.21 µM (inactive)	1.39 µM (inactive)	0.908 µM (active)	4.45 µM (inactive)	> 10 µM (inactive)	7.41 µM (inactive)	2.9 µM (inactive)	> 10 µM (inactive)	2.16 µM (inactive)	0.467 µM (active)	2.06 µM (inactive)	1.88 µM (inactive)	3.21 µM (inactive)	1.42 µM (inactive)	0.272 µM (active)	0.0411 µM (active)
CCCCCC(=O)Nc1[nH]nnc1C#N	> 100 µM (inactive)	> 100 µM (inactive)	> 100 µM (inactive)	> 100 µM (inactive)	> 100 µM (inactive)	> 100 µM (inactive)	> 100 µM (inactive)	> 100 µM (inactive)	> 100 µM (inactive)	> 100 µM (inactive)	> 100 µM (inactive)	> 100 µM (inactive)	> 100 µM (inactive)	> 100 µM (inactive)	> 100 µM (inactive)	> 100 µM (inactive)	> 100 µM (inactive)	> 100 µM (inactive)	> 100 µM (inactive)	> 100 µM (inactive)
NC(=O)c1nnsc1N/N=C/c1ccc([N+](=O)[O-])cc1	> 100 µM (inactive)	> 100 µM (inactive)	> 100 µM (inactive)	> 100 µM (inactive)	> 100 µM (inactive)	> 100 µM (inactive)	> 100 µM (inactive)	> 100 µM (inactive)	76.9 µM (inactive)	> 100 µM (inactive)	> 100 µM (inactive)	> 100 µM (inactive)	77.1 µM (inactive)	> 100 µM (inactive)	> 100 µM (inactive)	> 100 µM (inactive)	> 100 µM (inactive)	> 100 µM (inactive)	> 100 µM (inactive)	> 100 µM (inactive)
COc1c2ccccc2c(OC)c2nc(C)ccc12	> 94 µM (inactive)	> 100 µM (inactive)	> 100 µM (inactive)	> 100 µM (inactive)	> 100 µM (inactive)	> 100 µM (inactive)	56.1 µM (inactive)	> 100 µM (inactive)	> 100 µM (inactive)	> 100 µM (inactive)	> 100 µM (inactive)	> 100 µM (inactive)	> 100 µM (inactive)	> 100 µM (inactive)	81.8 µM (inactive)	> 100 µM (inactive)	> 81.8 µM (inactive)	> 100 µM (inactive)	> 100 µM (inactive)	40.6 µM (inactive)
O=C(NO)c1ccc(C(=O)NO)cc1	> 100 µM (inactive)	> 100 µM (inactive)	9.86 µM (inactive)	> 100 µM (inactive)	> 100 µM (inactive)	> 100 µM (inactive)	49.7 µM (inactive)	> 100 µM (inactive)	48 µM (inactive)	> 100 µM (inactive)	> 100 µM (inactive)	30.3 µM (inactive)	39.3 µM (inactive)	30.8 µM (inactive)	30.1 µM (inactive)	43.6 µM (inactive)	> 100 µM (inactive)	34.5 µM (inactive)	> 100 µM (inactive)	24.9 µM (inactive)
NC(CS)C(=O)NCCNc1ccc(NCCNC(=O)C(N)CS)c2c1C(=O)c1c(O)ccc(O)c1C2=O (stereo not given)	0.0243 µM (active)	0.0115 µM (active)	0.225 µM (active)	0.00836 µM (active)	0.0188 µM (active)	0.219 µM (active)	0.422 µM (active)	0.0771 µM (active)	0.483 µM (active)	0.32 µM (active)	0.0259 µM (active)	0.166 µM (active)	0.0313 µM (active)	0.0225 µM (active)	0.0417 µM (active)	0.433 µM (active)	0.0223 µM (active)	0.0261 µM (active)	0.00865 µM (active)	< 0.001 µM (active)
COc1ccc2c(c1)CCN=C2Cc1ccccc1CCCl	22.1 µM (inactive)	20.8 µM (inactive)	17.1 µM (inactive)	24.3 µM (inactive)	25.8 µM (inactive)	25.8 µM (inactive)	17.5 µM (inactive)	51.9 µM (inactive)	17.1 µM (inactive)	37.2 µM (inactive)	20.5 µM (inactive)	17.7 µM (inactive)	16.5 µM (inactive)	23.4 µM (inactive)	17.6 µM (inactive)	15.4 µM (inactive)	22.5 µM (inactive)	50.5 µM (inactive)	30.1 µM (inactive)	23.7 µM (inactive)
CC(C)(C)OC(=O)NCC(=O)N1CCN(C(=O)CNC(=O)OC(C)(C)C)CC1	> 100 µM (inactive)	> 100 µM (inactive)	> 100 µM (inactive)	> 100 µM (inactive)	> 100 µM (inactive)	> 100 µM (inactive)	> 100 µM (inactive)	> 100 µM (inactive)	> 100 µM (inactive)	> 100 µM (inactive)	> 100 µM (inactive)	> 100 µM (inactive)	> 100 µM (inactive)	> 100 µM (inactive)	> 100 µM (inactive)	> 100 µM (inactive)	> 100 µM (inactive)	> 100 µM (inactive)	> 100 µM (inactive)	> 100 µM (inactive)
O=[N+]([O-])c1cc2c(c3nonc13)OCCCCO2	14.3 µM (inactive)	10.2 µM (inactive)	17.3 µM (inactive)	4.6 µM (inactive)	13.4 µM (inactive)	9.16 µM (inactive)	4.95 µM (inactive)	24.9 µM (inactive)	5.25 µM (inactive)	18.2 µM (inactive)	2.82 µM (inactive)	26.5 µM (inactive)	4.19 µM (inactive)	4.36 µM (inactive)	3.7 µM (inactive)	3.31 µM (inactive)	5.77 µM (inactive)	15 µM (inactive)	6.22 µM (inactive)	3.99 µM (inactive)
COC(=O)C1CC23CCCN4CCC5(c6ccccc6N(C=O)C15CC2)C43 (stereo not given)	> 100 µM (inactive)	> 100 µM (inactive)	> 100 µM (inactive)	> 100 µM (inactive)	> 100 µM (inactive)	> 100 µM (inactive)	> 100 µM (inactive)	> 100 µM (inactive)	> 100 µM (inactive)	> 100 µM (inactive)	> 100 µM (inactive)	> 100 µM (inactive)	> 100 µM (inactive)	> 100 µM (inactive)	> 100 µM (inactive)	> 100 µM (inactive)	> 100 µM (inactive)	> 100 µM (inactive)	> 100 µM (inactive)	> 100 µM (inactive)
CC(C)(C)OC(=O)NC(CCCCNC(=O)OCc1ccccc1)C(=O)NCCNc1ccc(NCCNC(=O)C(CCCCNC(=O)OCc2ccccc2)NC(=O)OC(C)(C)C)c2c1C(=O)c1ccccc1C2=O (stereo not given)	> 100 µM (inactive)	27.5 µM (inactive)	8.67 µM (inactive)	> 100 µM (inactive)	10.5 µM (inactive)	29.3 µM (inactive)	27.2 µM (inactive)	> 100 µM (inactive)	31.5 µM (inactive)	> 100 µM (inactive)	17.6 µM (inactive)	5.11 µM (inactive)	> 89.7 µM (inactive)	8.36 µM (inactive)	1.02 µM (active)	5.85 µM (inactive)	23 µM (inactive)	> 100 µM (inactive)	> 100 µM (inactive)	> 100 µM (inactive)
C=C(C)C(=O)O[C@H]1CC2(CO)O[C@@H]2CC/C(COC(C)=O)=C/C2OC(=O)C(=C)[C@@H]21 (stereo not given in full)	28.8 µM (inactive)	42.2 µM (inactive)	44.6 µM (inactive)	92 µM (inactive)	> 100 µM (inactive)	> 64.6 µM (inactive)	18.2 µM (inactive)	> 100 µM (inactive)	31.8 µM (inactive)	> 100 µM (inactive)	74.8 µM (inactive)	29.5 µM (inactive)	22.5 µM (inactive)	22 µM (inactive)	7.16 µM (inactive)	61.4 µM (inactive)	39.5 µM (inactive)	> 96.6 µM (inactive)	26.1 µM (inactive)	7.93 µM (inactive)
